The text below walks through data of patent US5767142A, “Trisbenzimidazoles useful as topoisomerase I inhibitors” (Rutgers, The State University of New Jersey, priority 1996, dated 1998).

pIC50: −log10 of the molar value. In brackets after ≈: the same amount, converted by molar mass. Entries after “also recorded” stand apart in the source; their conditions may differ. Read-outs that look alike come from different tables or passages of the source.

In data set [1] the test system is CPT-2000, a variant of A2780. Put plainly: Cytotoxicity, camptothecin-resistant CPT-2000. It is filed as cell-based. To be noted: Homo sapiens. The method, then: (§1) The cytotoxicity was determined using the as MTT-microtiter plate tetrazolinium cytotoxicity assay (MTA) following the procedures of F. Denizot et al., J. Immunol. Methods, 89, 271 (1986); J. Carmichael et al., Cancer Res., 47, 936 (1987) and T. J. Mosmann et al., Immunol. Methods, 65, 55 (1983). The human lymphoblast RPMI 8402 and its camptothecin-resistant variant cell line, CPT-K5 were provided by Dr. Toshiwo Andoh (Aichi Cancer Center Research Institute, Nagoya, Japan). See, for example, T. Andoh et al., Adv. Pharmacol., 29B, 93 (1994). The cytotoxicity assay was performed using 96-well microtiter plates. Cells were grown in suspension at 37° C. in 5% CO2 and maintained by regular passage in RPMI medium supplemented with 10% heat inactivated fetal bovine serum, L-glutamine (2 mM), penicillin (100 U/ml), and streptomycin (0.1 mg/ml). For determination of IC50, cells were exposed continuously with varying concentrations of drug concentrations and MTT assays were performed at the end of the fourth day.

The subject of data set [2] is human lymphoblast RPMI 8402 cells. Put plainly: MTT cytotoxicity assay, RPMI 8402. It counts as cell-based. The following applies: for pIC50: Homo sapiens, RPMI 8402, 96 h, 4 days continuous drug exposure, read-out: Cytotoxicity IC50, RPMI. The method, then:
(§2) The cytotoxicity was determined using the as MTT-microtiter plate tetrazolinium cytotoxicity assay (MTA) following the procedures of F. Denizot et al., J. Immunol. […] The cytotoxicity assay was performed using 96-well microtiter plates. Cells were grown in suspension at 37° C. in 5% CO2 and maintained by regular passage in RPMI medium supplemented with 10% heat inactivated fetal bovine serum, L-glutamine (2 mM), penicillin (100 U/ml), and streptomycin (0.1 mg/ml). For determination of IC50, cells were exposed continuously with varying concentrations of drug concentrations and MTT assays were performed at the end of the fourth day.

In data set [3] the test system is CPT-K5 cells (camptothecin-resistant variant of RPMI 8402). Put plainly: MTT cytotoxicity assay, camptothecin-resistant CPT-K5. It is filed as cell-based, human. The following applies: for Relative resistance (ratio of IC50 values of resistant versus drug sensitive cell line): CPT-K5 versus RPMI 8402, 5760 min; for pIC50: Homo sapiens, CPT-K5, 96 h, read-out: Cytotoxicity IC50, CPT-K5. How it is done: as §2

The target of data set [4] is T1, calf thymus topoisomerase I (Bos taurus, UniProt A0AAA9TV68).
T1 construct: plasmid YEpG DNA cleavage assay
T1 sequence (A0AAA9TV68 2-769): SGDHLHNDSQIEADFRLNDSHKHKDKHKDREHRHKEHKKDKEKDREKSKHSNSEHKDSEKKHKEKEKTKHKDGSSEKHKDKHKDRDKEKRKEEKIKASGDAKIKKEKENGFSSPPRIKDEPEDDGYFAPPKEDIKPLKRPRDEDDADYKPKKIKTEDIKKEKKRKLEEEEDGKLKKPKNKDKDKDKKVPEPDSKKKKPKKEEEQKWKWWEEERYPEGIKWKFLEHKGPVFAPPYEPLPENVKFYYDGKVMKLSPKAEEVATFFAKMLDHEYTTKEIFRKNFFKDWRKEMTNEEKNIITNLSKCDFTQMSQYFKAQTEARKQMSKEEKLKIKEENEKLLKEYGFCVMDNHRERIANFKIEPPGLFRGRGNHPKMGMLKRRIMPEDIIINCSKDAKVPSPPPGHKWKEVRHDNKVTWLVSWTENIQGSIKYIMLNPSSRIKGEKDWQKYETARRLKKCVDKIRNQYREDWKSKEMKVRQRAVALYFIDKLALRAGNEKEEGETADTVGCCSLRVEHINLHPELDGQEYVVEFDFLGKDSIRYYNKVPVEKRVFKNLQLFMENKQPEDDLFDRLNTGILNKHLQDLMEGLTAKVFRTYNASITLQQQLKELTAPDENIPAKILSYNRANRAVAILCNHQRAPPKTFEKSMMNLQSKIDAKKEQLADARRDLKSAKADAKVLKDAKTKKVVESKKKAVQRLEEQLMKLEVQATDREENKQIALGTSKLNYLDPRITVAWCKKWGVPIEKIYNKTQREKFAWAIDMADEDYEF
Put plainly: Topoisomerase I-mediated DNA cleavage assay (calf thymus topoisomerase I, plasmid YEpG). It is filed as biochemical. From the text:
DNA topoisomerase I was purified from calf thymus gland as reported previously by B. D. Halligan et al., J. Biol. Chem., 260, 2475 (1985). Plasmid YEpG was also purified by the alkali lysis method followed by phenol deproteination and CsCl/ethidium isopycnic centrifugation as described by T. Mariatis et al., Molecular Cloning, A Laboratory Manual, Cold Spring Harbor Labs, NY (1982) at pages 149-185. The end-labeling of the plasmid was accomplished as previously described by L. F. Liu et al., J. Biol. Chem., 258, 15365 (1983). The cleavage assays were performed as previously reported by A. Y. Chen et al., Cancer Res., 53, 1332 (1993). Human topoisomerase was isolated as a recombinant fusion protein using a T7 expression system.
^b Topoisomerase I cleavage values are reported as REC, Relative
Effective Concentration, i.e. concentrations relative to Hoechst 33342,
whose value is arbitrarily assumed as 1, that are able to produce the sam
cleavage on the plasmid DNA in the presence of calf thymus topoisomerase
I. Cleavage is calculated from the intensity of the strongest Hoechst

The subject of data set [5] is human ovarian tumor cell line, A2780. Put plainly: Cytotoxicity, ovarian tumor cell line A2780. It counts as cell-based. How it is done: as §1
Data set [6] deals with human MDR1 (P-glycoprotein). Put plainly: Substrate of human MDR1 (P-glycoprotein), from cytotoxicity in KB 3-1 and KB V-1 cells. It is filed as cell-based. The following applies: concluded from KB 3-1 / KB V-1 IC50 values. How it is done:
The drug sensitive human epidermoid carcinoma KB3-1 cell line (S. Aliyama et al., Somatic Cell Mol. Genet, 11, 117 (1985)) and its vinblastine-selected multidrug-resistant variant KBV-1 cells (D. W. Shen et al., Science, 32, 643 (1986)) were provided by Dr. Michael Gottesmann (National Cancer Institute, Bethesda, ML). These cells were grown as monolayer cultures at in 5% CO2 and maintained by regular passage in Dulbecco's minimal essential medium supplemented with 10% heat inactivated fetal bovine serum. KBV-1 cells were similarly maintained except they were grown in the presence of 1 μg/ml vinblastine.
The cytotoxic activity of Hoechst 33342 and 13 was also evaluated against KB 3-1 and KB V-1 cells. The primary difference between these cell lines is in the degree to which human MDR1 (P-glycoprotein) is expressed. […] Pharmacol., 245, 29B (1994).

Data set [7] concerns KBV-1 cells (multidrug-resistant variant of KB3-1, overexpress MDR1). Put plainly: MTT cytotoxicity assay, multidrug-resistant KBV-1. It counts as cell-based, human. To be noted: for pIC50: Homo sapiens, KB-V1, 96 h, read-out: Cytotoxicity IC50, KBV-1. How it is done:
as §2
(§3) These cells were grown as monolayer cultures at in 5% CO2 and maintained by regular passage in Dulbecco's minimal essential medium supplemented with 10% heat inactivated fetal bovine serum. KBV-1 cells were similarly maintained except they were grown in the presence of 1 μg/ml vinblastine.

For data set [8] the test system is unchanged. To be noted: cited from earlier work.
Data set [9] concerns human epidermoid carcinoma KB3-1 cell line. Put plainly: MTT cytotoxicity assay, KB3-1. It is filed as cell-based. To be noted: KB 3-1, 96 h, 4 days continuous drug exposure. How it is done:
as §2, §3

For data set [10] the test system is unchanged. The following applies: previously reported; read-out: IC50 of Hoechst 33342 in KB 3-1 cells; cited from earlier work.
For data set [11] the following is noted: cited from earlier work.
Data set [12] relates to topoisomerase I. The following applies: literature; cited from earlier work.
[13] abbreviates: 4 days continuous drug exposure.

In data set [1], `c1ccc(-c2ccc3nc(-c4ccc5nc(-c6ccc7nc[nH]c7c6)[nH]c5c4)[nH]c3c2)cc1` [Compound 13, 5-Phenyl-2-[2'(benzimidazol-5"-yl)benzimidazol-5'-yl]benzimidazole] gave an IC50 of 0.03 µg/mL (≈ 0.0703 µM). Further, in data set [2], the “Cytotoxicity towards RPMI 8402 (in words)” value was “significant cytotoxicity” and the pIC50 is 7.05. In addition, in data set [3], the “Cytotoxicity against CPT-K5 cells (in words)” value was “effective against camptothecin-resistant CPT-K5 cells”, the “Relative resistance (ratio of IC50 values of resistant versus drug sensitive cell line)” value is “approximately 30 fold” and the pIC50 is 6.24. Also, the “Potency as topoisomerase I inhibitor (in words)” value in data set [4] is “approximately one-half as potent as Hoechst 33342 as a topoisomerase I inhibitor”. Also, inhibition in data set [5] was half-maximal at 0.015 µg/mL (≈ 0.0352 µM) (IC50). For the same compound, the “Substrate for human MDR1 (in words)” value in data set [6] is listed as “appears not to be a substrate for human MDR1”. The pIC50 in [7] was 6.46. Besides, the “Difference of cytotoxicity between KB 3-1 and KB V-1 cells (in words)” value in data set [7] (KB 3-1 versus KB V-1) is listed as “little difference between the IC50 values”.
Consider `CCOc1ccc(-c2nc3cc(-c4nc5cc(N6CCN(C)CC6)ccc5[nH]4)ccc3[nH]2)cc1` [Hoechst 33342, 2'-(4-ethoxyphenyl)-5-(4-methyl-1-piperazinyl)-2,5'-bi-1H-benzimidazole, reference compound], for which the “Difference of IC50 between KB 3-1 and KB V-1 cells (in words)” value in [8] (as reported by A. Y. Chen et al., Adv. Pharmacol., 245, 29B (1994)) is given as “differs by approximately two-orders of magnitude”. Also, the “less cytotoxic to KB V-1 cells than to KB 3-1 cells” value in data set [8] (previously reported, KB V-1 overexpress MDR1) is “approximately 130 fold”. For the same compound, the “Efficacy against tumor cell lines which overexpress MDR1 (in words)” value in data set [8] (previously reported) was “not effective against tumor cell lines which overexpress MDR1”. In addition, the pIC50 in data set [2] was 7.52; in data set [9] it was 8.00; in data set [3] (setting [13]), 6.05; in data set [10], approximately 8.05; in data set [7] (setting [13]) it was 5.92. Also, the “Cytotoxicity against CPT-K5 cells (in words)” value in data set [3] is given as “effective against camptothecin-resistant CPT-K5 cells”. In addition, the “Relative resistance (ratio of IC50 values of resistant versus drug sensitive cell line)” value in data set [3] is listed as “approximately 30 fold”. Further, the “Topo I-mediated DNA cleavage (REC, Relative Effective Concentration)” value in data set [4] amounted to 1. In addition, the “Protonation at physiological pH (in words)” value in data set [11] was “extensively protonated at physiological pH”. Further, the “Inhibition of topoisomerase I (in words)” value in data set [12] is “is an inhibitor of topoisomerase I; also recorded: traps the reversible cleavable complex derived from DNA and topoisomerase I and produces a limited number of highly specific single-strand DNA breaks”.
